Values quoted from earlier work as cited in PMC9516332 (Frontiers in Oncology, 2022).
Like-named read-outs stand apart in the source and are kept apart here.

Key:
[1] = biological target: panel of 255 wild-type kinases (Homo sapiens, UniProt Q13557); conditions: CaMK2δ kinase assay, 1 µmol/L single concentration, cited from earlier work
[2] = biological target: panel of 255 wild-type kinases (Homo sapiens, UniProt P19525); conditions: kinase PKR, 1 µmol/L single concentration, cited from earlier work
[3] = biological target: panel of 255 wild-type kinases (Homo sapiens, UniProt Q96GD4); conditions: AurB kinase assay, 1 µmol/L single concentration, cited from earlier work
[4] = biological target: panel of 255 wild-type kinases (Homo sapiens, UniProt P10721); conditions: kinase KIT, 1 µmol/L single concentration, cited from earlier work
[5] = biological target: panel of 255 wild-type kinases (Homo sapiens, UniProt Q06187); conditions: BTK kinase assay, 1 µmol/L single concentration, cited from earlier work
[6] = biological target: panel of 255 wild-type kinases (Homo sapiens, UniProt P49674); conditions: kinase CK1ε, 1 µmol/L single concentration, cited from earlier work
[7] = biological target: T1, panel of 255 wild-type kinases (Homo sapiens, UniProt O15111); conditions: kinase IKKα, 1 µmol/L single concentration, cited from earlier work
T1 sequence (O15111 1-745): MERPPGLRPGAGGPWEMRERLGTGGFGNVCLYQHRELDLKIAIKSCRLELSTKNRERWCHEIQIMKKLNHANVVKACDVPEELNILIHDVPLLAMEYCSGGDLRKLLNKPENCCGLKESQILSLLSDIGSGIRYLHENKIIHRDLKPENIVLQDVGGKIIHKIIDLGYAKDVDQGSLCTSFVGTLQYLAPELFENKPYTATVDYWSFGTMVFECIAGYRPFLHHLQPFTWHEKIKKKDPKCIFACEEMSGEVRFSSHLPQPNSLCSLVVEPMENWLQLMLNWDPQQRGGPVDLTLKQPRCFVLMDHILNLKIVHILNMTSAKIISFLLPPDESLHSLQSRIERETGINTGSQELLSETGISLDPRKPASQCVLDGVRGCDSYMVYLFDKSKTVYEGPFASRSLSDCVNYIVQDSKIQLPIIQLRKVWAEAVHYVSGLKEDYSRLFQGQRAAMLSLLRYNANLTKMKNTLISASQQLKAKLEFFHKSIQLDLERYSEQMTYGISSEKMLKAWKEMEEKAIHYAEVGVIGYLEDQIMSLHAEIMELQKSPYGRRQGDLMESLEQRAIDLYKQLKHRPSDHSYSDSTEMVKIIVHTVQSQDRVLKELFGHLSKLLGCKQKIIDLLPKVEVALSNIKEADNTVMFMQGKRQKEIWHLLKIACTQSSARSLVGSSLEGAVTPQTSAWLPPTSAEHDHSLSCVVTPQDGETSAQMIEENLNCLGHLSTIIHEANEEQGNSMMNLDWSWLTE

[8] = biological target: panel of 255 wild-type kinases (Homo sapiens, UniProt P07332); conditions: kinase FES, 1 µmol/L single concentration, cited from earlier work
[9] = biological target: panel of 255 wild-type kinases (Homo sapiens, UniProt P22694); conditions: kinase PKACβ, 1 µmol/L single concentration, cited from earlier work
[10] = biological target: panel of 255 wild-type kinases (Homo sapiens, UniProt Q9H1R3); conditions: kinase skMLCK, 1 µmol/L single concentration, cited from earlier work
[11] = biological target: panel of 255 wild-type kinases (Homo sapiens, UniProt P06493); conditions: CDC2/CycB1 kinase assay, 1 µmol/L single concentration, cited from earlier work
[12] = biological target: T2, panel of 255 wild-type kinases (Homo sapiens, UniProt Q13976); conditions: kinase PGK, 1 µmol/L single concentration, cited from earlier work
T2 sequence (Q13976 1-671): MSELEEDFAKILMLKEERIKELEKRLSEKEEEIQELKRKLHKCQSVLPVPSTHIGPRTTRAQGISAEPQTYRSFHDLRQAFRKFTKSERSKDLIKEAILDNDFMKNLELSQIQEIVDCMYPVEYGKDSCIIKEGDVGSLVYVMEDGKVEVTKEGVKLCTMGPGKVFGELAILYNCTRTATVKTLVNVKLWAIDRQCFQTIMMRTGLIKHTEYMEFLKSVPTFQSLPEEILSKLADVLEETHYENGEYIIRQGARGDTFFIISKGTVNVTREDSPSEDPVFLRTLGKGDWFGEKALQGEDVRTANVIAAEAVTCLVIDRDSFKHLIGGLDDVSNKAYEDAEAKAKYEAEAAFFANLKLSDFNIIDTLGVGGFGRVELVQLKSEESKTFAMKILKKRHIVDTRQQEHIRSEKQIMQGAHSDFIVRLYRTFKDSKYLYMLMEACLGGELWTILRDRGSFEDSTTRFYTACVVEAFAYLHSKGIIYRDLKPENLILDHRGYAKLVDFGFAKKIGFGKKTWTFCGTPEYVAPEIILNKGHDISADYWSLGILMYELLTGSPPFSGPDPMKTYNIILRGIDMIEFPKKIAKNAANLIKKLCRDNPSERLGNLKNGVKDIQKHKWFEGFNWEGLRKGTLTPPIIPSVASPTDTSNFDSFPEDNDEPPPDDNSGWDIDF

[13] = biological target: panel of 255 wild-type kinases (Homo sapiens, UniProt P04629); conditions: kinase TRKA, 1 µmol/L single concentration, cited from earlier work
[14] = ref DOI: 10.1158/1535-7163.MCT-18-0877
[15] = ref DOI: 10.1371/journal.pone.0092146

Row | SMILES | %-inhibition CaMK2δ [1, 14] | %-inhibition at 1 µmol/L, PKR [2, 14] | %-inhibition AurB [3, 14] | %-inhibition at 1 µmol/L, KIT [4, 14] | %-inhibition BTK [5, 14] | %-inhibition at 1 µmol/L, CK1ε [6, 14] | %-inhibition at 1 µmol/L, IKKα [7, 14] | %-inhibition at 1 µmol/L, FES [8, 14] | %-inhibition at 1 µmol/L, PKACβ [9, 14] | %-inhibition at 1 µmol/L, skMLCK [10, 14] | %-inhibition CDC2/CycB1 [11, 14] | %-inhibition at 1 µmol/L, PGK [12, 14] | %-inhibition at 1 µmol/L, TRKA [13, 14] | %-inhibition CaMK2δ [1, 15] | %-inhibition at 1 µmol/L, PKR [2, 15] | %-inhibition AurB [3, 15] | %-inhibition at 1 µmol/L, KIT [4, 15] | %-inhibition BTK [5, 15] | %-inhibition at 1 µmol/L, CK1ε [6, 15] | %-inhibition at 1 µmol/L, IKKα [7, 15] | further results
1 | O=C(c1ccc(F)c(F)c1Nc1ccc(I)cc1F)N1CC(O)([C@@H]2CCCCN2)C1 [cobimetinib] | 1.1% | 0.867% | -11% | -17% | 4% | 2.44% | 1.07% | 1.67% | -6.51% | -10% | -0.108% | 2.54% | 18% | – | – | – | – | – | – | – | –
2 | C=CC(=O)Nc1cc(Nc2nccc(-c3cn(C)c4ccccc34)n2)c(OC)cc1N(C)CCN(C)C [osimertinib] | 19% | 6% | -1.24% | -13% | 84% | 18% | 5% | 42% | -6% | -4% | 23% | 3.61% | 27% | – | – | – | – | – | – | – | –
3 | CC(=O)Nc1cccc(-n2c(=O)n(C3CC3)c(=O)c3c(Nc4ccc(I)cc4F)n(C)c(=O)c(C)c32)c1 [trametinib] | – | – | – | – | – | – | – | – | – | – | – | – | – | -2.19% | 1.13% | -4% | -0.648% | 18% | -5.38% | 2.63% | %-inhibition at 1 µmol/L, FES [8, 15]: -1.55%; %-inhibition at 1 µmol/L, PKACβ [9, 15]: -5%; %-inhibition at 1 µmol/L, skMLCK [10, 15]: -3.34%; %-inhibition CDC2/CycB1 [11, 15]: 8%; %-inhibition at 1 µmol/L, PGK [12, 15]: -1.31%; %-inhibition at 1 µmol/L, TRKA [13, 15]: -1.17%
4 | CCCS(=O)(=O)Nc1ccc(F)c(C(=O)c2c[nH]c3ncc(-c4ccc(Cl)cc4)cc23)c1F [vemurafenib] | – | – | – | – | – | – | – | – | – | – | – | – | – | -0.235% | -0.765% | 6% | 58% | 2% | 2.46% | -1.89% | %-inhibition at 1 µmol/L, FES [8, 15]: 18%; %-inhibition at 1 µmol/L, PKACβ [9, 15]: 2.66%; %-inhibition at 1 µmol/L, skMLCK [10, 15]: 53%; %-inhibition CDC2/CycB1 [11, 15]: 10%; %-inhibition at 1 µmol/L, PGK [12, 15]: -4.33%; %-inhibition at 1 µmol/L, TRKA [13, 15]: 16%
